This is an account of results in patent US8507010B2, “Compositions comprising quinazoline derivatives” (Shanghai Allist Pharmaceuticals, Inc., priority 2008, dated 2013).

Structures are written as SMILES.

Series [1] can be described thus: in vivo. Particulars: male, SD, rat. As for the experimental part:
Intragastric administration (ig): 16 healthy SD rats (Shanghai Super-B&K Laboratory Animal Corp. Ltd., grade SPF), male, weighted 200-250 g, randomly divided into four groups, were each administered intragastrically with a drug: the compound prepared according to Example 1 (21.68 mg/kg), crystalline form A, crystalline form B, or crystalline form C (30 mg/kg) of p-toluenesulfonate of said compound. The blood samples were collected at 0.5 h, 1.0 h, 1.5 h, 2.0 h, 3.0 h, 5.0 h, 7.0 h, 9.0 h, 12 h, and 24 h after administration, which were then isolated to prepare the plasma. The concentrations of the drugs in the plasma were determined by means of liquid phase chromatography/tandem mass spectrometer (Agilent 1200LC/6410B), and the concentration-time curve was obtained.

The test system of series [2] is human epidermoid squamous cancer cell A431. The experiment in a line: Tumor-inhibitory effect on human epidermoid squamous cancer cell A431 grafted to a BALB/cA nude mouse. It is filed as in vivo. To be noted: 13 successive days, 23 days after grafting. As for the experimental part:
A well-developed solid tumor A431 was selected and incised into several uniform pieces with the size of 2-3 mm under sterile conditions, with one piece being grafted subcutaneously to the right armpit of each of the BALB/cA nude mice using a trocar. 7 days after the grafting, the mice were grouped randomly and were intragastrically administrated through mouth for 13 successive days. The long axis (a) and the short axis (b) of the tumors were measured with a vernier caliper every 4 days. According to the formula V=ab^2/2, the volume of the tumor (mm^3) could be calculated. The tested animals were neck-off killed 23 days after the grafting, and anatomized to obtain the tumors. The tumors were weighed, and the tumor inhibition rate was calculated.
(§1) Human epidermoid squamous carcinoma A431 grafted to BALB/cA nude mouse is an animal model having high expression of EGFR (erbB-1), and human ovarian cancer SKOV-3 grafted to BALB/cA nude mouse is an animal model having high expression of erbB-2.

Series [3] concerns human ovarian cancer SKOV-3. The series is described as follows: Tumor-inhibitory effect on human ovarian cancer SKOV-3 grafted to a BALB/cA nude mouse. The format is in vivo. Particulars: for RTV: RTV=Vt/V0; for Volume of tumor (mm^3) V0: prior to the administration. Here is the method: A SKOV-3 tumor tissue in vigorous growth period was selected and incised into uniform pieces with the size of about 1.5 mm^3, which was grafted subcutaneously to the right armpit of a BALB/cA nude mouse (Shanghai Institute of Materia Medica, Chinese Academy of Sciences, grade SPF) with a trocar under sterile conditions. The diameters of the grafted tumors on the nude mouse were measured with a vernier caliper. The animals were grouped randomly when the tumors grew to a size of 80 to 100 mm^3. The tested animal groups were intragastrically administered through mouth as mentioned above once a day for 3 consecutive weeks. The positive control drug MMC (Mitomycin) was intravenously administered once on the first day with a dose of 5 mg/kg (0.9% sterile sodium chloride solution). The negative control group was administered with 0.5% CMC-Na (Carboxymethyl Cellulose-Sodium) with a dose of 0.2 mL/per mouse. The long axis (a) and the short axis (b) of the tumors were measured twice every week and the nude mice were weighed at the same time. According to the formula V=ab^2/2, the volume (mm^3) of the tumor could be calculated. Relative tumor volume (RTV) was calculated from the measurement result (according to the formula: RTV=Vt/V0, wherein V0 is the tumor volume measured upon the grouping time of administration, and Vt is the tumor volume measured each time). The relative tumor proliferation rate T/C(%) was chosen as the index of evaluation of anti-tumor activity, by the formula: T/C(%)=(TRTV/CRTV)×100 TRTV: RTV of the treated group; CRTV: RTV of the negative control group
as §1

Series [4] can be described thus: Study of stability at high temperature (60° C.). The format is physicochemical. Particulars: p-toluenesulfonate; for Purity (%): 60° C.; for thermal stability (in words): stored at 60° C. for 1 month.
Series [5] can be described thus: Study of light stability. The format is physicochemical. To be noted: p-toluenesulfonate; for light stability (in words): illumination 45001×±5001× for 1 month; for Purity (%): illumination 45001×±5001×. An excerpt:
The purity of the crystalline form A was detected at day 0, day 10 and day 30, thereby deducing light stability of crystalline form A. The light stability of each of crystalline forms B and C is obtained by the same approach.

A short description of series [6]: Study of hygroscopicity (92.5% humidity). Particulars: p-toluenesulfonate; for stability in highly humid surroundings (in words): 92.5% humidity for 1 month; for Purity (%): 92.5% humidity. The format is physicochemical.
Setting [7] is: 50 mg/kg ig once a day for 3 weeks.
Setting [8] is: 100 mg/kg ig once a day for 3 weeks.
The mark [9] stands for this setting: 200 mg/kg ig once a day for 3 weeks.
[10] abbreviates: 5 mg/kg iv once on the first day.

For orientation: bioavailability means dose-corrected exposure relative to a reference, in per cent. For orientation: AUC(0-t) means exposure summed from dosing to a finite time, without extrapolation to infinity. Low readings indicate less exposure, high ones more exposure. The Cmax is the highest concentration seen after dosing. A word on the Tmax: it is the time at which the peak concentration occurs. As usually defined, the half-life is the time in which the quantity being followed falls by half. High values mean slow loss, low ones fast loss.

In series [1] (absolute bioavailability), `C=CC(=O)Nc1ccc2ncnc(Nc3ccc(OCc4cccc(F)c4)c(Cl)c3)c2c1.Cc1ccc(S(=O)(=O)O)cc1` [Crystalline form A, N-{4-[3-chloro-4-(3-fluoro-benzyloxy)phenylamino]quinazolin-6-yl}-acrylamide p-toluenesulfonate] returned a bioavailability of 8.75%. For the same compound, the AUC(0-t) in series [1] (po, 30 mg/kg) was found to be 977 ng·h/mL. This compound also registered a Cmax in series [1] (po, 30 mg/kg) of 187 ng/mL. In series [1] (po, 30 mg/kg), this compound displayed a T1/2 of 1.49 h. In series [1] (po, 30 mg/kg), the Tmax is 2.83 h. Also, the Tumor-inhibitory rate % is 29.99% in series [2] (25 mg/kg ig), 38.67% in series [2] (50 mg/kg ig) and 43.63% in series [2] (100 mg/kg ig). Further, the “Weight of animals (g) (tumor-off)” value in series [2] (25 mg/kg ig) amounted to 21.58 ± 2.18 g; in series [2] (50 mg/kg ig), 22.87 ± 3.96 g; in series [2] (100 mg/kg ig), 22.13 ± 1.83 g. The entries for the “Weight of tumor (g) x ± SD” value in series [2] (25 mg/kg ig), in series [2] (50 mg/kg ig) and in series [2] (100 mg/kg ig) were 0.79 ± 0.20 g, 0.69 ± 0.17 g and 0.64 ± 0.23 g, respectively. Further, the “T/C (%)” value in series [3] (setting [7]) is listed as 53.0%; in series [3] (setting [8]), 45.0%; in series [3] (setting [9]) it was 36.9%. The RTV was 5.1 ± 1.7 in series [3] (setting [7]), 4.3 ± 1.3 in series [3] (setting [8]) and 3.5 ± 0.8 in series [3] (setting [9]). The “Volume of tumor (mm^3) V21” value in series [3] (50 mg/kg ig once a day, after administration for consecutive 3 weeks) amounted to 421 ± 89 mm^3; in series [3] (100 mg/kg ig once a day, after administration for consecutive 3 weeks), 345 ± 88 mm^3; in series [3] (200 mg/kg ig once a day, after administration for consecutive 3 weeks), 303 ± 72 mm^3. The figures for the “Volume of tumor (mm^3) V0” value in series [3] (50 mg/kg ig), in series [3] (100 mg/kg ig) and in series [3] (200 mg/kg ig) were 79 ± 28 mm^3, 87 ± 41 mm^3 and 86 ± 13 mm^3, respectively. In addition, the “inhibitory effect on the tumor (in words)” value in series [3] (SKOV-3 grafted to BALB/cA nude mouse, high expression of erbB-2, p-toluenesulfonate) was “significant inhibitory effect on the tumor”. Moreover, the “Purity (%)” value in series [4] (day 0) was 98.64%; in series [4] (day 10), 98.64%; in series [4] (day 30), 98.64%; in series [5] (day 0), 98.64%; in series [5] (day 10), 98.16%; in series [5] (day 30), 97.24%. Also, the “Purity (%)” value in series [6] (day 0) came out at 98.64%; in series [6] (day 10) it was 98.62%; in series [6] (day 30), 98.62%. The “thermal stability (in words)” value in series [4] is listed as “excellent thermal stability”. In addition, the “light stability (in words)” value in series [5] is “good light stability”. Further, the “stability in highly humid surroundings (in words)” value in series [6] was “very stable”.
In the case of `C=CC(=O)Nc1ccc2ncnc(Nc3ccc(OCc4cccc(F)c4)c(Cl)c3)c2c1.Cc1ccc(S(=O)(=O)O)cc1` [Crystalline form B, N-{4-[3-chloro-4-(3-fluoro-benzyloxy)phenylamino]quinazolin-6-yl}-acrylamide p-toluenesulfonate], the absolute bioavailability in series [1] is 8.76%. In series [1] (po, 30 mg/kg), this compound gave an AUC(0-t) of 978 ng·h/mL. For the same compound, in series [1] (po, 30 mg/kg), the Cmax is 253 ng/mL. The compound also yielded a T1/2 in series [1] (po, 30 mg/kg) of 1.23 h. Moreover, in series [1] (po, 30 mg/kg), the Tmax is listed as 1.25 h. In addition, the “Purity (%)” value in series [4] (day 0) came to 99.26%; in series [4] (day 10), 99.21%; in series [4] (day 30) it was 99.11%; in series [5] (day 0) it was 99.26%; in series [5] (day 10) it was 99.26%; in series [5] (day 30), 99.24%. Moreover, the “Purity (%)” value was 99.26% in series [6] (day 0), 99.25% in series [6] (day 10) and 99.24% in series [6] (day 30). Also, the “thermal stability (in words)” value in series [4] is on record as “excellent thermal stability”. The “light stability (in words)” value in series [5] is “excellent light stability”. In addition, the “stability in highly humid surroundings (in words)” value in series [6] is given as “very stable”.
Take `C=CC(=O)Nc1ccc2ncnc(Nc3ccc(OCc4cccc(F)c4)c(Cl)c3)c2c1.Cc1ccc(S(=O)(=O)O)cc1` [Crystalline form C, N-{4-[3-chloro-4-(3-fluoro-benzyloxy)phenylamino]quinazolin-6-yl}-acrylamide p-toluenesulfonate]: in series [1], the absolute bioavailability is on record as 5.17%. Moreover, the Tmax in series [1] (po, 30 mg/kg) was determined as 2.25 h. The compound further yielded an AUC(0-t) in series [1] (po, 30 mg/kg, AUC0-t) of 577 ng·h/mL. The compound further had a Cmax in series [1] (po, 30 mg/kg, Cmax) of 161 ng/mL. Also, the half-life in series [1] (po, 30 mg/kg, T1/2) was 1.27 h. Moreover, the “Purity (%)” value in series [4] (day 0) came out at 99.03%; in series [4] (day 10) it was 97.08%; in series [4] (day 30), 97.55%; in series [5] (day 0), 99.03%; in series [5] (day 10), 98.54%; in series [5] (day 30), 98.42%. Further, the entries for the “Purity (%)” value in series [6] (day 0), in series [6] (day 10) and in series [6] (day 30) were 99.03%, 98.27% and 98.08%, respectively. Moreover, in series [4], the “thermal stability (in words)” value is “good thermal stability”. Also, in series [5], the “light stability (in words)” value is “good light stability”. For the same compound, the “stability in highly humid surroundings (in words)” value in series [6] was “quite stable”.
On to `CO[C@@]12[C@H](COC(N)=O)C3=C(C(=O)C(C)=C(N)C3=O)N1C[C@@H]1N[C@@H]12` [MMC, Mitomycin, reference compound], for which, in series [3] (setting [10]), the RTV turned out to be 3.1 ± 0.5 and the “Volume of tumor (mm^3) V0” value was determined as 83 ± 13 mm^3. In series [3] (5 mg/kg iv once on the first day, T/C=(TRTV/CRTV)×100), the “T/C (%)” value stood at 32.0%. For the same compound, the “Volume of tumor (mm^3) V21” value in series [3] (5 mg/kg iv once on the first day, after 3 weeks) is 258 ± 77 mm^3.
